These results are taken from publication PMC6836573, “Mitochondria-targeting fluorescent molecules for high efficiency cancer growth inhibition and imaging” (Chemical Science, 2019).

Molecules are shown by their SMILES. Entries after “also recorded” stand apart in the source; their conditions may differ.

Series [1] is described as follows: Photostability under continuous excitation. The class given is physicochemical. As to conditions: water, 10 μM, continuously excited for 50 min. The method, then:
bandpass filter (MF559-34, Thorlabs, Newton, New Jersey, USA) was used to excite Mitotracker
Red. All the dyes were dissolved in water at a 10 µM concentration in 700 µL micro quartz cuvettes (10 mm, Sigma-Aldrich, St. Louis, MO, USA). They were continuously excited for 50 mins.
During this period, the fluorescence intensity was measured every 5 mins at 525 nm (F16s, Rhodamine 6G, Mitotracker Green) or 600 nm (Mitotracker Red). Relative fluorescence intensity change was monitored over time. […]

Series [2] can be described thus: Cytotoxicity assay (direct cell counting), NIH-3T3. Type of series: cell-based. As to conditions: mouse; NIH-3T3 normal cells; 3 days incubation, viable cells counted. The method, then:
(§1) Cell culture, imaging, and cytotoxicity assay
(§2) RPMI-1640 medium. NIH/3T3 was cultured in DMEM medium. A549 was cultured in F-12K medium. T24 were cultured in McCoy's 5A medium. All culture mediums were supplemented with 10% fetal bovine serum. The cells were incubated at 37 °C in an atmosphere containing 5% CO 2. […]
(§3) Cytotoxicity assay. All test cell lines were incubated in 96-well plates overnight at a density of 3000 cells/well. The culture medium was replaced with 200 μL of culture medium, into which the testing compound was dispersed at various concentrations (1.95 - 500 μM). After incubating for 3 days, the viable cell numbers were checked and directly counted under microscopy (10X). A minimum of 1mm×1mm area was counted from each of at least three widely separated regions of cell culture. The cell proliferation rate was calculated by the following formula: cell proliferation rate (%) = (average cell number of sample wells / average cell number of control wells) ×100%.
(§4) The intact culture medium was evaluated as a control. […]

Series [3] has as its system NSCLC H838 cell. The series is described as follows: Cytotoxicity assay (direct cell counting), H838. The class given is cell-based. The conditions noted are these: H838 cells, 3 days incubation, viable cells counted. The method, then:
as §1, §2, §3, §4
All animal experiments were performed in compliance with the Guidelines for the Care and Use of Research Animals as established by the Stanford University Animal Studies Committee. Female athymic nude mice (nu/nu) from 4−6 weeks old were obtained from Charles River Laboratories (Boston, MA, USA) and kept under sterile conditions. 5 × 106 human lung adenocarcinoma

In series [4] the test system is bladder cancer T24 cell. Briefly: Cytotoxicity assay (direct cell counting), T24. The class given is cell-based. As to conditions: for IC50: T24 cells, 3 days incubation, viable cells counted. The method, then: as §1, §2, §3, §4
A short description of series [5]: Relative fluorescence quantum yield. The class given is physicochemical. The conditions noted are these: EtOH, relative to rhodamine 6G, excited at 425 nm. On the procedure:
Quantum yield. The fluorescence quantum yields of F16s were determined according to the […]
Where Φ is the quantum yield, F is the integrated area under the corrected emission spectrum, and A is the absorbance at the excitation wavelength; the subscripts x and s refer to F16s and the standard, respectively. Rhodamine 6G (ΦF = 95%) in ethanol was used as the standard. All F16s and Rhodamine 6G were dissolved in ethanol in 5 different concentrations with the absorbance lower than 0.1 at 425nm. The corresponding 5 different fluorescences of F16s and Rhodamine 6G were excited at 425 nm and the emission spectra from 450 nm to 650 nm were obtained for the following integrated area measurement. All data were analyzed using Origin Pro 9.0 software (OriginLab, Northampton, Massachusetts, USA) to get the F16s final quantum yield. […]

A short description of series [6]: Absorption and emission spectra in water. The class given is physicochemical. As to conditions: 31 μM.
On the set-up of series [7]: method as in PMID 19072739, PMID 10656430, PMID 12154051. As to conditions: study halted at Phase II; cited from earlier work.
Details of series [8]: method as in earlier work. As to conditions: in ethanol, used as the standard; ref 2 of the supplement; cited from earlier work.

For orientation: IC50 means the concentration that inhibits the measured activity by half. Lower therefore signals greater potency in that assay. Turning to `Cn1cc(/C=C/c2cc[n+](C)cc2)c2cc(F)ccc21` [1-MeFF16], in series [1] (listed as 1), the photostability entry is “bleached quite easily; also recorded: dramatically decreased photostability”. In series [2], it took 104 µM to reach half-maximal inhibition (IC50 at 3 days). Also, the IC50 in series [3] (Homo sapiens, NCI-H838, 72 h) turned out to be 19.1 µM; in series [4] (Homo sapiens, T-24, 72 h) it was 21.7 µM. For the same compound, the “Quantum Yield” value in series [5] is recorded as 13.6%; in series [5] (listed as 1) it was “around 12%”.
As for `C[n+]1ccc(/C=C/c2c(Cl)[nH]c3ccccc23)cc1` [2-ClF16], in series [1] (listed as 8), the photostability entry is reported as “bleached quite easily; also recorded: poor photostability”. For the same compound, the 50% inhibitory concentration (IC50) at 3 days in series [2] turned out to be 13.8 µM. Moreover, the IC50 worked out at 25.7 µM in series [3] (Homo sapiens, NCI-H838, 72 h) and 54.7 µM in series [4] (Homo sapiens, T-24, 72 h). Besides, the entries for the “Quantum Yield” value in series [5] and in series [5] (listed as 8) were 8.6% and “under 10%”, respectively.
On to `Cc1ccc2[nH]c(C)c(/C=C/c3cc[n+](C)cc3)c2c1` [2-Me-5-MeF16], for which the photostability entry in series [1] (listed as 9) is “bleached quite easily; also recorded: poor photostability”. In series [2], this compound displayed a concentration for half-maximal inhibition (IC50) at 3 days of 161 µM. In addition, the IC50 in series [3] (Homo sapiens, NCI-H838, 72 h) was 17.3 µM; in series [4] (Homo sapiens, T-24, 72 h), 68.8 µM. Further, in series [6], the absorption peak entry is recorded as “about 450 nm”. For the same compound, the “Quantum Yield” value in series [5] is recorded as 18.1%; in series [5] (listed as 9), “around 20%”.
Consider `C[n+]1ccc(/C=C/c2c(-c3ccccc3)[nH]c3ccccc23)cc1` [2-PhF16], for which the IC50 at 3 days in series [2] is 0.326 µM. Further, the IC50 in series [3] (Homo sapiens, NCI-H838, 72 h) was found to be 3.74 µM; in series [4] (Homo sapiens, T-24, 72 h), 4.02 µM. Moreover, in series [6], the absorption peak entry is reported as “about 450 nm”. Besides, the entries for the “Quantum Yield” value in series [5] and in series [5] (listed as 5) were 5.8% and “under 10%”, respectively.
`C[n+]1ccc(/C=C/c2c[nH]c3ccc(Br)cc23)cc1` [5-BrF16] had an IC50 at 3 days in series [2] of 11.6 µM. Also, the IC50 in series [3] (Homo sapiens, NCI-H838, 72 h) was 1.2 µM; in series [4] (Homo sapiens, T-24, 72 h), 1.84 µM. For the same compound, the “Quantum Yield” value in series [5] was 49.1%.
In the case of `C[n+]1ccc(/C=C/c2c[nH]c3ccc(C#N)cc23)cc1` [5-CNF16], the 50% inhibitory concentration (IC50) in series [3] (Homo sapiens, NCI-H838, 72 h) was found to be 20 µM; in series [4] (Homo sapiens, T-24, 72 h) it was 316 µM. Besides, the “Quantum Yield” value is listed as 9.7% in series [5] and “under 10%” in series [5] (listed as 6).
With `C[n+]1ccc(/C=C/c2c[nH]c3c(F)cc(I)cc23)cc1` [5-I-7-FF16], the IC50 at 3 days in series [2] was 14.2 µM. Besides, the IC50 in series [3] (Homo sapiens, NCI-H838, 72 h) is 1.29 µM; in series [4] (Homo sapiens, T-24, 72 h), 3.83 µM. Moreover, the “Quantum Yield” value is 4.5% in series [5] and “under 10%” in series [5] (listed as 10).
With `C[n+]1ccc(/C=C/c2c[nH]c3ccccc23)cc1` [F16, reference compound], the IC50 in series [3] came to 46.6 µM; in series [4] it was 18.8 µM.
Take `C[n+]1ccc(/C=C/c2c[nH]c3ccc(F)cc23)cc1` [FF16]: inhibition in series [2] was half-maximal at 75.1 µM (IC50 at 3 days). The IC50 in series [3] (Homo sapiens, NCI-H838, 72 h) is 3.63 µM; in series [4] (Homo sapiens, T-24, 72 h), 6.26 µM. This compound registered a selectivity indices in series [4] (3T3 versus T24 and H838) of more than 10. Besides, the “Quantum Yield” value in series [5] was 18.5%; in series [5] (listed as 7) it was “around 20%”.
Turning to `CCn1c(=O)/c(=C2\Sc3ccccc3N2C)s/c1=C\c1cccc[n+]1CC.[Cl-]` [MKT-077], in series [7], the “anti-tumor effect in clinical trial” value is recorded as “limited anti-tumor effect” and the “nephrotoxicity in clinical trial” value is given as “mild nephrotoxicity”.
Take `C[n+]1ccc(/C=C/c2c[nH]c3ccc([N+](=O)[O-])cc23)cc1` [NO2F16]: in series [2], the IC50 at 3 days worked out at 86 µM. Also, the IC50 stood at 4.7 µM in series [3] (Homo sapiens, NCI-H838, 72 h) and 73.8 µM in series [4] (Homo sapiens, T-24, 72 h). Also, the “Quantum Yield” value in series [5] is listed as 1.24%; in series [5] (listed as 11), “under 10%”.
As to `C[n+]1ccc(/C=C/c2c[nH]c3c2ccc2ccccc23)cc1` [PhF16], the IC50 at 3 days in series [2] was determined as 0.28 µM. In addition, the IC50 in series [3] (Homo sapiens, NCI-H838, 72 h) stood at 1.5 µM; in series [4] (Homo sapiens, T-24, 72 h), 1.02 µM. Also, the “Quantum Yield” value is 12.2% in series [5] and “around 12%” in series [5] (listed as 2).
On to `CC/N=c1\cc2oc3cc(NCC)c(C)cc3c(-c3ccccc3C(=O)OCC)c-2cc1C` [rhodamine 6G], for which the “Quantum Yield of the standard” value in series [8] is 95%.
